Source: patent US20040204474A1, “Carvedilol-lipophilic solutions” (priority 2000, published 2004)
Where two headings read alike, the source gives them in different places.

Tests used:
[1] = solubility of carvedilol in aqueous media; format: physicochemical; details: about pH 1-2
[2] = solubility of carvedilol in adjuvants and solvents with lipophilic character; format: physicochemical; details: for solubility: oil or lipid
[3] = gastrointestinal resorption after peroral administration; format: in vivo; details: rapid release formulations, e.g. the commercial formulation

solubility in aqueous media, strongly acidic region [1]: very low solubility
solubility in pronounced lipophilic solvents (paraffin, petroleum ether) [2]: very low
solubility in benzyl alcohol ([2]; at 37° C.): > 100 mg of carvedilol per ml
solubility ([2]; capric acid, 37 °C, at 37° C., read-out: solubility in capric acid): > 100 mg/mL
solubility ([2]; in many cases, read-out: solubility in glycerol oleyloleate, medium chain triglycerides and natural oils): < 10 mg/mL
solubility ([2]; all named solvents, read-out: solubility in glycerol oleyloleate, medium chain triglycerides and natural oils (cod liver, soya bean, sesame, peanut, olive, cottonseed oil)): < 50 mg/mL
solubility ([2]; oleic acid, 37 °C, at 37° C., read-out: solubility in oleic acid): > 100 mg/mL
resorption quota [3]: up to 80%
Compound: COc1ccccc1OCCNCC(O)COc1cccc2[nH]c3ccccc3c12 (centres unmarked) [carvedilol, 1-(4-carbazolyloxy)-3-[2-(2-methoxyphenoxy)ethyl-amino]-2-propanol]
